According to ChEMBL document CHEMBL1201862, “PubChem BioAssay data set” (2004):
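All cell lines were grown in 96-well plates and treated with compound for 48 hours. Here, GI50 denotes the concentration required for 50% inhibition of growth.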 Activity calls are given as the source filed them. Rule as the data show it: active = GI50 up to about 1.1 µM and inactive = higher.

Assays:
Test in all cases: NCI tumour cell line growth inhibition, 48 h
M14 = tested on: M14
SR = tested on: SR
NCI-H226 = tested on: NCI-H226
RPMI-8226 = tested on: RPMI-8226
SF-295 = tested on: SF-295
SNB-75 = tested on: SNB-75
HCT-116 = tested on: HCT-116
HT-29 = tested on: HT-29
SK-MEL-5 = tested on: SK-MEL-5
SN12C = tested on: SN12C
HOP-62 = tested on: HOP-62
COLO 205 = tested on: COLO 205
HL-60 = tested on: HL-60
SW-620 = tested on: SW-620
OVCAR-5 = tested on: OVCAR-5
BT-549 = tested on: BT-549
SK-MEL-28 = tested on: SK-MEL-28
CCRF-CEM = tested on: CCRF-CEM
OVCAR-8 = tested on: OVCAR-8

Row | SMILES | GI50 (M14) | GI50 (SR) | GI50 (NCI-H226) | GI50 (RPMI-8226) | GI50 (SF-295) | GI50 (SNB-75) | GI50 (HCT-116) | GI50 (HT-29) | GI50 (SK-MEL-5) | GI50 (SN12C) | GI50 (HOP-62) | GI50 (COLO 205) | GI50 (HL-60) | GI50 (SW-620) | GI50 (OVCAR-5) | GI50 (BT-549) | GI50 (SK-MEL-28) | GI50 (CCRF-CEM) | GI50 (OVCAR-8)
1 | c1ccc2c(c1)sc1c3cnccc3ccc21 | > 100 µM (inactive) | 11.6 µM (inactive) | 24.2 µM (inactive) | 0.0697 µM (active) | 85.9 µM (inactive) | > 100 µM (inactive) | > 100 µM (inactive) | 99.8 µM (inactive) | > 100 µM (inactive) | > 100 µM (inactive) | > 100 µM (inactive) | 90.8 µM (inactive) | 40.6 µM (inactive) | 76.4 µM (inactive) | > 100 µM (inactive) | > 100 µM (inactive) | > 100 µM (inactive) |  | 
2 | OCC(CN1CCCCC1)(CN1CCCCC1)CN1CCCCC1 | > 100 µM (inactive) | > 100 µM (inactive) | > 100 µM (inactive) |  | > 10 µM (inactive) |  | > 100 µM (inactive) | > 100 µM (inactive) | > 100 µM (inactive) | > 100 µM (inactive) | > 100 µM (inactive) | > 100 µM (inactive) | > 100 µM (inactive) | > 100 µM (inactive) | > 100 µM (inactive) | > 100 µM (inactive) | > 100 µM (inactive) | > 100 µM (inactive) | > 100 µM (inactive)
3 | CSc1c(C#N)c(O)nc(N)c1C(=O)Nc1ccc(C)cc1 | > 100 µM (inactive) | > 100 µM (inactive) | 34.4 µM (inactive) | > 100 µM (inactive) |  | > 100 µM (inactive) | > 100 µM (inactive) | > 100 µM (inactive) | > 100 µM (inactive) | > 100 µM (inactive) |  | > 100 µM (inactive) | > 100 µM (inactive) | > 100 µM (inactive) | > 100 µM (inactive) | > 100 µM (inactive) | > 100 µM (inactive) | 97.5 µM (inactive) | > 100 µM (inactive)
4 | COc1cc(C(=O)/C=C/c2ccc(OCCSCCCCCCCCCCSCCOc3ccc(/C=C/C(=O)c4cc(OC)c(OC)c(OC)c4)cc3)cc2)cc(OC)c1OC | > 100 µM (inactive) | > 100 µM (inactive) |  | > 100 µM (inactive) | > 100 µM (inactive) | > 100 µM (inactive) | > 100 µM (inactive) | > 100 µM (inactive) | > 100 µM (inactive) | > 100 µM (inactive) | > 100 µM (inactive) | > 100 µM (inactive) | > 100 µM (inactive) | > 100 µM (inactive) | > 100 µM (inactive) | > 100 µM (inactive) | > 100 µM (inactive) | > 100 µM (inactive) | > 100 µM (inactive)
5 | Cc1cc(C2(c3cc(C)c(O)c(C(=O)O)c3)OS(=O)(=O)c3ccccc32)cc(C(=O)O)c1O | > 100 µM (inactive) | > 100 µM (inactive) | > 100 µM (inactive) | > 100 µM (inactive) | > 100 µM (inactive) | > 100 µM (inactive) | > 100 µM (inactive) | > 100 µM (inactive) | > 100 µM (inactive) | > 100 µM (inactive) | > 100 µM (inactive) | > 100 µM (inactive) | > 100 µM (inactive) | > 100 µM (inactive) | > 100 µM (inactive) | > 100 µM (inactive) | > 100 µM (inactive) |  | > 100 µM (inactive)
6 | CC(=O)OC12CC(C)C3(O)C4C=C(C)C(=O)[C@@]4(O)CC(CO)=C[C@H]3C1C2(C)C (stereo partly specified) | > 10 µM (inactive) | > 10 µM (inactive) | > 10 µM (inactive) | > 10 µM (inactive) |  | > 10 µM (inactive) | > 10 µM (inactive) | > 10 µM (inactive) | 5.2 µM (inactive) | > 100 µM (inactive) | > 100 µM (inactive) | 1.88 µM (inactive) | 0.887 µM (active) | 5.73 µM (inactive) | > 10 µM (inactive) | > 10 µM (inactive) | > 10 µM (inactive) | > 1000 µM (inactive) | > 10 µM (inactive)
7 | COc1cc(OC)c2c(c1-c1ccc(C)cc1)CC(C)N(Cc1ccccc1)[C@H]2C (stereo partly specified) | 43.2 µM (inactive) | 30.3 µM (inactive) | 49.4 µM (inactive) | 13.5 µM (inactive) | 70.3 µM (inactive) | 6.9 µM (inactive) | 20.3 µM (inactive) | 18.5 µM (inactive) | 19.4 µM (inactive) | 35.9 µM (inactive) | 59 µM (inactive) | 32.3 µM (inactive) | 12.2 µM (inactive) | 34.8 µM (inactive) |  | 28.2 µM (inactive) | 38.2 µM (inactive) | 7.76 µM (inactive) | 39.4 µM (inactive)
8 | Cn1cc(C[C@@H](N)C(=O)O)c2ccccc21 [INDOXIMOD] | > 100 µM (inactive) | > 100 µM (inactive) | > 100 µM (inactive) | > 100 µM (inactive) | > 100 µM (inactive) | > 100 µM (inactive) | > 100 µM (inactive) | > 100 µM (inactive) |  | > 100 µM (inactive) | > 100 µM (inactive) | > 100 µM (inactive) | > 100 µM (inactive) | > 100 µM (inactive) | > 100 µM (inactive) | > 100 µM (inactive) | > 100 µM (inactive) | > 100 µM (inactive) | > 100 µM (inactive)
